Target: PARP7 (Homo sapiens (Human), UniProt Q7Z3E1)
Test: Enzymatic assay for inhibition of PARP7: TR-FRET displacement of biotinylated Probe A from the TIPARP active site
Type: binding
Settings: Table A-1
Procedure, shortened: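 TR-FRET, ex 320 nm / em 615 and 665 nm. Signal ratio reflects complex formation.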

Chain of PARP7 (Q7Z3E1 whole entry): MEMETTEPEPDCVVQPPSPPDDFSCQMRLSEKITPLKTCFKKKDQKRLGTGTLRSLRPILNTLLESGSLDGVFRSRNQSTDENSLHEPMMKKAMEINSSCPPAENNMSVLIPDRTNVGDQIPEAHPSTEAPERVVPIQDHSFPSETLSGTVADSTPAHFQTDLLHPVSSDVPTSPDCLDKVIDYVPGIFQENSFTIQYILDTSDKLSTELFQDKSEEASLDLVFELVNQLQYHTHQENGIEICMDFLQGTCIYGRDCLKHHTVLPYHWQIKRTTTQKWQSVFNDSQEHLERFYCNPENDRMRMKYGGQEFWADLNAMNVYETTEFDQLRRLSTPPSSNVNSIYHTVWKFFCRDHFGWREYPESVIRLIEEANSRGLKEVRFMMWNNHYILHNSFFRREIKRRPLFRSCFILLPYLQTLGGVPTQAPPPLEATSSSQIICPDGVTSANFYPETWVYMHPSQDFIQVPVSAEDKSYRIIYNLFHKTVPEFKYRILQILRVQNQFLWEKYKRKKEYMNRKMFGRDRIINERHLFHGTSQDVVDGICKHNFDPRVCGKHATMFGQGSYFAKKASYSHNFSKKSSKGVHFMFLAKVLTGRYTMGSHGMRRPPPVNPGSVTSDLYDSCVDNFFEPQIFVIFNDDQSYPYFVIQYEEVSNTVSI

Compared with `N#Cc1cccnc1N1CCN(C(=O)c2cccc(OC[C@@H]3c4ccccc4CN3c3cn[nH]c(=O)c3C(F)(F)F)c2)CC1` [Example 359, (S)-2-(4-(3-((2-(6-Oxo-5-(trifluoromethyl)-1,6-dihydropyridazin-4-yl)isoindolin-1-yl)methoxy)benzoyl)piperazin-1-yl)nicotinonitrile], `N#Cc1cnc(N2CCN(C(=O)c3cccc(OC[C@H]4c5ccccc5CN4c4cn[nH]c(=O)c4C(F)(F)F)c3)CC2)cn1` [Example 369, (R)-5-(4-(3-((2-(6-Oxo-5-(trifluoromethyl)-1,6-dihydropyridazin-4-yl)isoindohn-1-yl)methoxy)benzoyl)piperazin-1-yl)pyrazine-2-carbonitrile] is higher in IC50: less than 100 nM for the first, 100 to 1000 nM for the second.

`COC[C@H](COCCC(=O)N1CCN(c2ccc(C#N)cn2)CC1)Nc1cn[nH]c(=O)c1C(F)(F)F` (single isomer, unassigned) [Example 518A] and `C[C@@H](COc1cn[nH]c(=O)c1C(F)(F)F)OCCC(=O)N1CCN(c2ccc(C#N)cn2)CC1` [Example 530C, 6-[4-(3-[[(2S)-1-[[6-Oxo-5-(trifluoromethyl)-1,6-dihydropyridazin-4-yl]oxy]propan-2-yl]oxy]propanoyl)piperazin-1-yl]pyridine-3-carbonitrile] cannot be ordered by IC50: no less than 1000 nM for the first, 100 to 1000 nM for the second.

`O=c1[nH]ncc(N2Cc3cccc(N4CCCC4)c3C2)c1C(F)(F)F` [Example 284, 5-(4-(Pyrrolidin-1-yl)isoindolin-2-yl)-4-(trifluoromethyl)pyridazin-3(2H)-one] and `O=c1[nH]ncc(N2Cc3cc(F)c(N4CCOCC4)cc3C2)c1C(F)(F)F` [Example 26, 5-[5-fluoro-6-(morpholin-4-yl)-2,3-dihydro-1H-isoindol-2-yl]-4-(trifluoromethyl)-2,3-dihydropyridazin-3-one] cannot be ordered by IC50: less than 100 nM for the first, less than 100 nM for the second.

First: CC(C)c1c(N2Cc3ccc(OC4CCCNC4)cc3C2)cn[nH]c1=O (stereo not shown) [Example 287, 4-Isopropyl-5-(5-(piperidin-3-yloxy)isoindolin-2-yl)pyridazin-3(2H)-one]
Second: O=c1[nH]ncc(N2Cc3ccc(OC4CCNC4)cc3C2)c1C(F)(F)F (stereo not shown) [Example 218, 5-(5-(Pyrrolidin-3-yloxy)isoindolin-2-yl)-4-(trifluoromethyl)pyridazin-3(2H)-one]
The IC50 of the first is higher: no less than 1000 nM for the first, less than 100 nM for the second. The second is the more potent here.

`COc1cccc2c1CN(c1cn[nH]c(=O)c1C(F)(F)F)C2C` (stereo not shown) [Example 308, 5-(4-Methoxy-1-methylisoindolin-2-yl)-4-(trifluoromethyl)pyridazin-3(2H)-one] and `CC(=O)N1CCC(Oc2cc3c(cc2F)CN(c2cn[nH]c(=O)c2C(F)(F)F)C3C)CC1` (stereo not shown) [Example 5, 5-[6-[(1-acetylpiperidin-4-yl)oxy]-5-fluoro-1-methyl-2,3-dihydro-1H-isoindol-2-yl]-4-(trifluoromethyl)-2,3-dihydropyridazin-3-one] fall in the same range of IC50: 100 to 1000 nM for the first, 100 to 1000 nM for the second.

`N#Cc1ccc(N2CCN(C(=O)C[C@H]3CC[C@H](COc4cn[nH]c(=O)c4Cl)O3)CC2)nc1` (single isomer, unassigned) [Example 582 Isomer B] and `O=C(C[C@H]1CC[C@H](COc2cn[nH]c(=O)c2Cl)O1)N1CCN(c2ncc(Cl)cn2)CC1` (single isomer, unassigned) [Example 566 Isomer B] cannot be ordered by IC50: 100 to 1000 nM for the first, no less than 1000 nM for the second.

`Cc1cnc(N2CCN(C(=O)c3cccc(OC[C@@H]4CCCN4c4cn[nH]c(=O)c4C(F)(F)F)c3)CC2)nc1` [Example 447, (S)-5-(2-((3-(4-(5-Methylpyrimidin-2-yl)piperazine-1-carbonyl)phenoxy)methyl)pyrrolidin-1-yl)-4-(trifluoromethyl)pyridazin-3(2H)-one] and `N#Cc1ccc(N2CCN(C(=O)CCNC[C@@H]3CCCN3c3cn[nH]c(=O)c3C(F)(F)F)CC2)nc1` [Example 135, 6-[4-[3-([[(2S)-1-[6-oxo-5-(trifluoromethyl)-1,6-dihydropyridazin-4-yl]pyrrolidin-2-yl]methyl]amino)propanoyl]piperazin-1-yl]pyridine-3-carbonitrile] cannot be ordered by IC50: less than 100 nM for the first, less than 100 nM for the second.

Compared with `O=C(C[C@H]1CC[C@H](COc2cn[nH]c(=O)c2C(F)(F)F)O1)N1CCN(c2ncc(C(F)(F)F)cn2)CC1` (single isomer, unassigned) [Example 574 Isomer B], `C[C@@H](COCCC(=O)N1CCN(c2ncc(C(F)(F)F)cn2)CC1)Sc1cn[nH]c(=O)c1C(F)(F)F` [Example 618, (S)-5-((1-(3-Oxo-3-(4-(5-(trifluoromethyl)pyrimidin-2-yl)piperazin-1-yl)propoxy)propan-2-yl)thio)-4-(trifluoromethyl)pyridazin-3(2H)-one] is lower in IC50: 100 to 1000 nM for the first, less than 100 nM for the second. The second is the more potent here.

`C[C@@H](COCCC(=O)N1CCN(c2cnc(Cl)cn2)CC1)Nc1cn[nH]c(=O)c1C(F)(F)F` [Example 644, (S)-5-((1-(3-(4-(5-Chloropyrazin-2-yl)piperazin-1-yl)-3-oxopropoxy)propan-2-yl)amino)-4-(trifluoromethyl)pyridazin-3(2H)-one] and `C[C@@H](COCCC(=O)N1CCN(c2ncc(C(F)(F)F)cn2)CC1)Nc1cn[nH]c(=O)c1Br` [Example 601, 4-Bromo-5-[[(2S)-1-(3-oxo-3-[4-[5-(trifluoromethyl)pyrimidin-2-yl]piperazin-1-yl]propoxy)propan-2-yl]amino]-2,3-dihydropyridazin-3-one] cannot be ordered by IC50: less than 100 nM for the first, less than 100 nM for the second.

`C[C@@H](COCCC(=O)N1CCN(c2cnc(C(F)(F)F)s2)CC1)Nc1cn[nH]c(=O)c1C(F)(F)F` [Example 709, (S)-5-((1-(3-Oxo-3-(4-(2-(trifluoromethyl)thiazol-5-yl)piperazin-1-yl)propoxy)propan-2-yl)amino)-4-(trifluoromethyl)pyridazin-3(2H)-one] and `C[C@H](O)[C@@H](COCCC(=O)N1CCN(c2ncc(C(F)(F)F)cn2)CC1)Nc1cn[nH]c(=O)c1C(F)(F)F` [Example 611, 5-[[(2R,3S)-3-Hydroxy-1-(3-oxo-3-[4-[5-(trifluoromethyl)pyrimidin-2-yl]piperazin-1-yl]propoxy)butan-2-yl]amino]-4-(trifluoromethyl)-2,3-dihydropyridazin-3-one] cannot be ordered by IC50: less than 100 nM for the first, less than 100 nM for the second.

First: O=C(CCOCCOc1cn[nH]c(=O)c1C(F)(F)F)N1CCN(c2ccc(C(F)(F)F)cn2)CC1 [Example 536, 5-[2-(3-Oxo-3-[4-[5-(trifluoromethyl)pyridin-2-yl]piperazin-1-yl]propoxy)ethoxy]-4-(trifluoromethyl)-2,3-dihydroyridazin-3-one]
Second: C[C@@H](COc1cn[nH]c(=O)c1C(F)(F)F)OCCC(=O)N1CCN(c2ccc(Cl)cn2)CC1 (single isomer, unassigned) [Example 539 Isomer B]
The IC50 of the first is lower: less than 100 nM for the first, 100 to 1000 nM for the second.

First: N#Cc1ccc(NC2CN(C(=O)CCOC[C@@H]3CCCN3c3cn[nH]c(=O)c3C(F)(F)F)C2)nc1 [Example 107, 6-[[1-(3-[[(2S)-1-[6-oxo-5-(trifluoromethyl)-1,6-dihydropyridazin-4-yl]pyrrolidin-2-yl]methoxy]propanoyl)azetidin-3-yl]amino]pyridine-3-carbonitrile]
Second: N#Cc1ccc(N2CCC(NC(=O)CCOC[C@@H]3CCCN3c3cn[nH]c(=O)c3C(F)(F)F)C2)nc1 (stereo partly drawn) [Example 117, N-[1-(5-cyanopyridin-2-yl)pyrrolidin-3-yl]-3-[[(2S)-1-[6-oxo-5-(trifluoromethyl)-1,6-dihydropyridazin-4-yl]pyrrolidin-2-yl]methoxy]propanamide]
The IC50 of the first is lower: less than 100 nM for the first, 100 to 1000 nM for the second. The first is the more potent here.

`O=c1[nH]ncc(N2Cc3cc(F)c(OCCO)cc3C2)c1C(F)(F)F` [Example 245, 5-(5-Fluoro-6-(2-hydroxyethoxy)isoindolin-2-yl)-4-(trifluoromethyl)pyridazin-3(2H)-one] and `COCCOc1ccc2c(c1)CN(c1cn[nH]c(=O)c1C(F)(F)F)C2` [Example 229, 5-(5-(2-Methoxyethoxy)isoindolin-2-yl)-4-(trifluoromethyl)pyridazin-3(2H)-one] cannot be ordered by IC50: less than 100 nM for the first, less than 100 nM for the second.

First: N#Cc1ccc(N2CCN(C(=O)CCCOC[C@H]3c4ccccc4CN3c3cn[nH]c(=O)c3C(F)(F)F)CC2)nc1 [Example 409, (R)-6-(4-(4-((2-(6-Oxo-5-(trifluoromethyl)-1,6-dihydropyridazin-4-yl)isoindolin-1-yl)methoxy)butanoyl)piperazin-1-yl)nicotinonitrile]
Second: N#Cc1ccc(N2CCN(C(=O)c3ccnc(OCC4c5ccccc5CN4c4cn[nH]c(=O)c4C(F)(F)F)c3)CC2)nc1 (stereo not shown) [Example 381, 6-(4-(2-((2-(6-Oxo-5-(trifluoromethyl)-1,6-dihydropyridazin-4-yl)isoindolin-1-yl)methoxy)isonicotinoyl)piperazin-1-yl)nicotinonitrile]
The IC50 of the first is higher: 100 to 1000 nM for the first, less than 100 nM for the second.

`C[C@H]1C[C@@H](COCCC(=O)N2CCN(c3ccc(C#N)cn3)CC2)N(c2cn[nH]c(=O)c2C(F)(F)F)C1` [Example 78, 6-[4-(3-[[(2S,4S)-4-methyl-1-[6-oxo-5-(trifluoromethyl)-1,6-dihydropyridazin-4-yl]pyrrolidin-2-yl]methoxy]propanoyl)piperazin-1-yl]pyridine-3-carbonitrile] and `N#Cc1ccc(N2CCN(C(=O)c3cccc(OCCNc4cn[nH]c(=O)c4C(F)(F)F)c3)CC2)nc1` [Example 41, 6-(4-[[3-(2-[[6-oxo-5-(trifluoromethyl)-1,6-dihydropyridazin-4-yl]amino]ethoxy)phenyl]carbonyl]piperazin-1-yl)pyridine-3-carbonitrile] cannot be ordered by IC50: less than 100 nM for the first, less than 100 nM for the second.

First: O=c1[nH]ncc(N2Cc3cccnc3C2)c1Cl [Example 154, 4-Chloro-5-(5,7-dihydro-6H-pyrrolo[3,4-b]pyridin-6-yl)pyridazin-3(2H)-one]
Second: C[C@@H](COc1cn[nH]c(=O)c1Cl)OCCC(=O)N1CCN(c2ncc(Cl)cn2)CC1 (single isomer, unassigned) [Example 577 Isomer B]
The IC50 of the first is higher: 100 to 1000 nM for the first, less than 100 nM for the second. The second is the more potent here.

Compared with `O=C(COC[C@@H]1CCCN1c1cn[nH]c(=O)c1C(F)(F)F)N[C@H]1CC[C@H](Nc2ccccn2)CC1` (single isomer, unassigned; isomer a) [Example 80 Isomer A], `C[C@@H](COC[C@H](N)CC(=O)N1CCN(c2ncc(C(F)(F)F)cn2)CC1)Nc1cn[nH]c(=O)c1C(F)(F)F` (single isomer, unassigned) [Example 617 Isomer A] is lower in IC50: 100 to 1000 nM for the first, less than 100 nM for the second.

Source: patent publication US10550105B2 (Ribon Therapeutics Inc., priority 2018, dated 2020)
